# Experimental data taken from patent US20050233403A1, “Human adipocyte cell populations and methods for identifying modulators of same” (AdipoGenix, Inc., priority 2002, published 2005).
# Read-outs that look alike come from different tables or passages of the source.
# Experiments:
# [1] = test system: human subcutaneous adipocytes; assay: cells; settings: Adipocyte, read-out: % Efficacy (inhibition of FA* accumulation)
# Procedure: (§2) Cells are 10 thawed in PM and grown in tissue culture flasks under standard incubation conditions (5% carbon dioxide, 37° C.). Cells are passaged 1:2 upon 80-100% confluency. Cells are passaged up to ten times to produce enough cells for primary screening. • C. Cells are seeded and differentiated, as described in the previous section, in 384-well plates. • D. On day 6 of preadipocyte differentiation, the DM is first changed as described in the previous section. Cells are then incubated in a replicate manner (i.e., in triplicate) with compounds. […] Compounds are further diluted in a PBS or similarly buffered solution in the absence or presence of albumin to aid compound solubility. […] Positive control cells are treated with a compound or reagent known to modulate their ability to take up and/or accumulate fatty acids. […] The FA* currently used is 4,4-difluoro-5-methyl-4-bora-3a,4a-diaza-s-indacene-3-dodecanoic acid (C1-BODIPY® 500/510 C12, catalog # D-3823, Molecular Probes, Eugene, Oreg.). […] Cells are incubated for four hours at 5% carbon dioxide/37° C., then post-washed with FAB, preferably three times, to remove unincorporated FA*. Cellular fluorescence of triglyceride droplets that have incorporated FA* is measured on a microplate reader. Efficacy of compounds on inhibiting FA* accumulation is determined by: % Efficacy=100−(sample fluorescence/negative control fluorescence×100). • H. Subsequent determination of compound toxicity on cells is measured by incubating cells (after the post-wash and FA* reading) with an aliquot of Alamar Blue (catalog # DAL-1100, BioSource International), a fluorescent dye that is reduced via cellular metabolism. After incubation of cells with the dye for up to four hours, fluorescence of the reduced compound is read. Alternatively, compound toxicity on cells can be determined in an experiment separate from the primary screen uptake/accumulation assay. Toxicity of compounds is determined by: % Toxicity =100−(sample fluorescence/negative control fluorescence×100).
# (§3) Primary screens for inhibition of fatty acid uptake are carried out using human subcutaneous preadipocytes in each of two assay formats. In a first assay format, cells are exposed to natural product and synthetic library components early in the differentiation process (days 1-3 following addition of differentiation medium). In a second assay format, cells are exposed to library components late in the process (days 7-10 following addition of differentiation medium), after at least 80% of cells have differentiated.
# (§4) Subcutaneous human preadipocytes (passage 3-5) are seeded in plating medium at 3.0×10^4 cells/cm^2 in 96-well or 384-well plates, giving 100% confluence upon adherence. […]
# [2] = test system: differentiating adipocytes
# Procedure: The assay features differentiated human preadipocytes, but the procedure can be modified in a number of ways to discover novel compounds affecting the adipocytes of human and other species (i.e., rodent). For example, the day of compound addition during preadipocyte differentiation process can be changed as well as the incubation period. Similarly, the day of FA* addition, its type of fluorescent label and chain length, and its concentration and incubation time can be modified. • B. Up to five cell strains of frozen primary human subcutaneous preadipocytes (e.g., subcutaneous preadipocytes) are used, but this number can be increased as needed. Omental and mesenteric preadipocytes can be used in a similar manner. Cells are 10 thawed in PM and grown in tissue culture flasks under standard incubation conditions (5% carbon dioxide, 37° C.). Cells are passaged 1:2 upon 80-100% confluency. Cells are passaged up to ten times to produce enough cells for primary screening. • C. […] Cellular fluorescence of triglyceride droplets that have incorporated FA* is measured on a microplate reader. Efficacy of compounds on inhibiting FA* accumulation is determined by: % Efficacy=100−(sample fluorescence/negative control fluorescence×100). • H. Subsequent determination of compound toxicity on cells is measured by incubating cells (after the post-wash and FA* reading) with an aliquot of Alamar Blue (catalog # DAL-1100, BioSource International), a fluorescent dye that is reduced via cellular metabolism. After incubation of cells with the dye for up to four hours, fluorescence of the reduced compound is read. Alternatively, compound toxicity on cells can be determined in an experiment separate from the primary screen uptake/accumulation assay. Toxicity of compounds is determined by: % Toxicity =100−(sample fluorescence/negative control fluorescence×100).
# Subsequent determination of compound toxicity is measured by incubating cells with one tenth of total cell volume of Alamar Blue (an indicator of cellular metabolism) for up to four hours before measuring fluorescence of the reduced compound. […]
# [3] = test system: human subcutaneous adipocytes; settings: positive control
# Procedure: as §2, §3, §4
# [4] = test system: 3T3-L1 cells; assay: Fluorescent fatty acid uptake by 3T3-L1 cells, 96-well format; type: cell-based; settings: for Uptake by 3T3-L1 cells, Day 9 / Uptake by 3T3-L1 cells, Day 0: 10 μM dye, one hour, means ± SEM; for Uptake by 3T3-L1 cells, Day 9: cells 9 days in differentiation medium; for Uptake by 3T3-L1 cells, Day 0: cells not incubated in differentiation medium; for Fatty acid uptake, Fluor. Units: dye 120 minutes
# Procedure: To establish a rapid, 96 well format, automated assay of fatty acid uptake, the reproducibility and signal-to-noise ratios of four different fatty acid-fluorescent dye conjugates in undifferentiated and differentiated preadipocytes was determined. 3T3-L1 cells were used to compare the fluorescent dyes, the best of which was then selected for the human preadipocyte system. The fluorescent fatty acids tested were
# These fatty acid-dye conjugates were chosen because their final size is close to that of physiologically relevant C:18 fatty acids, the most abundant in human fat cells and in the diet (Kokatnur, M., et al.(1979) Am. J. Clin. Nutr. 32:2198-205; Llado, I., et al. (1996) Biochem. Mol. Biol. Int. 40:295-303)). Furthermore, these dyes are vital, allowing the cells to be re-used in additional assays. 3T3-L1 cells were seeded in the wells of a 96-well plate at a density of 3.3×10^3 cells/cm^2 (1×10^3 cells/well). After reaching confluence, cells were exposed to differentiation medium for 0 and 9 days. The wells were washed with assay buffer (150 mM […], 10 mM NaPO4; 3 mM KCl; 10 μM CaCl2; 1 mM MgCl2; 25 mM glucose; pH 7.4) containing 20 μM fatty acid-free BSA, pre-warmed to 37° C. The fluorescent fatty acids were added in assay buffer to a final concentration of 10 μM, and incubated at 37° C. for one hour. Wells were washed with assay buffer containing 0.1% BSA.
# Table 15 indicates the results of experiments in which 3T3-L1 cells were exposed to a differentiation inducing medium from day 0. Fatty acid uptake was assayed by exposing cells to BODPY for 120 minutes at each of the times represented.
# [5] = test system: 3T3-L1 cells; assay: as above; type: cell-based; settings: for BODIPY uptake, Day 0 / BODIPY uptake, Day 8: 10 μM
# [6] = test system: human preadipocytes; assay: Fatty acid uptake by human preadipocytes exposed to differentiation medium (fatty acid-based cellulomic assay); type: cell-based; settings: 10 d, relative to control medium, means of 4 studies
# Procedure: The following example describes the optimization of methods used to differentiate human preadipocytes. The example details a thorough analyses of known and potential agents and conditions for promoting human preadipocyte differentiation. Experiments were performed with abdominal subcutaneous as well as mesenteric and omental preadipocytes. A variety of conditions were tested using the fatty acid-based cellulomic assay described in Example 4. Optimization of differentiation conditions enhances the usefulness of human preadipocytes in screening for modulators (e.g., inhibitors) of obesity.
# (§1) The fatty acid uptake ratio was expressed as a function of fatty acid uptake in control medium. % Diff. represents the proportion of cells that developed doubly refractile lipid droplets visible by phase contrast microscopy by observers unaware of culture conditions. Means of 4 studies are shown. CoV was also determined (not shown) to monitor assay reliability.
# [7] = test system: human preadipocytes; assay: Extent of differentiation: % cells with doubly refractile lipid droplets by phase contrast microscopy; type: cell-based; settings: 10 d
# Procedure: as §1
# [8] = Dex 10^−4 M in suboptimal differentiation medium
# [9] = Dex 10^−7 M in suboptimal differentiation medium
# [10] = Dex 10^−10 M in suboptimal differentiation medium
smiles,measurement,setting,value
"N#CC(C#N)=NNc1ccc(OC(F)(F)F)cc1 [FCCP, carbonyl cyanide p-(trifluoromethoxy)-phenylhydrazone]",Emax at 0.3 µM,[1],42%
same,Emax at 1 µM,[1],79%
same,Emax at 3 µM,[1],90%
same,% Toxicity,[2]; 0.3 μM,−1%
same,% Toxicity,[2]; 1 μM,−4%
same,% Toxicity,[2]; 3 μM,5%
same,FA* uptake and/or accumulation,[3],inhibits FA* uptake and/or accumulation in a dose-responsive manner
"CCCCCCC(C/C=C\CCCCCCCC(=O)O)OC(=O)c1c2ccccc2cc2ccccc12 (stereo not drawn) [12-AO, 12-(9-anthroyloxy) oleic acid]","Uptake by 3T3-L1 cells, Day 9",[4],10960 ± 1172 Raw Fluorescent Units
same,"Uptake by 3T3-L1 cells, Day 0",[4],3613 ± 160 Raw Fluorescent Units
"CC1=[N+]2C(=Cc3ccc(CCCCCCCCCCCC(=O)O)n3[B-]2(F)F)C=C1 [BODIPY 500/510 C12, 4,4-difluoro-5-methyl-4-bora-3a,4a-diaza-s-indacene-3-dodecanoic acid]","BODIPY uptake, Day 0",[5]; incubation 10 min,1290.263 rfu
same,"BODIPY uptake, Day 8",[5]; incubation 10 min,1198.325 rfu
same,"BODIPY uptake, Day 0",[5]; incubation 30 min,510.3125 rfu
same,"BODIPY uptake, Day 8",[5]; incubation 30 min,18518.67 rfu
same,"BODIPY uptake, Day 0",[5]; incubation 120 min,686.9375 rfu
same,"BODIPY uptake, Day 8",[5]; incubation 120 min,46363 rfu
same,"BODIPY uptake, Day 0",[5]; incubation 240 min,1104.125 rfu
same,"BODIPY uptake, Day 8",[5]; incubation 240 min,49153.33 rfu
same,"Fatty acid uptake, Fluor. Units","[5]; Day 8 in differentiation inducing medium, dye 120 minutes",18685 Fluor. Units
same,"Uptake by 3T3-L1 cells, Day 9",[4],56869 ± 2093 Raw Fluorescent Units
same,"Uptake by 3T3-L1 cells, Day 0",[4],404 ± 21 Raw Fluorescent Units
same,"Fatty acid uptake, Fluor. Units",[4]; Day 0 in differentiation inducing medium,1166.67 Fluor. Units
same,"Fatty acid uptake, Fluor. Units",[4]; Day 2 in differentiation inducing medium,5006.75 Fluor. Units
same,"Fatty acid uptake, Fluor. Units",[4]; Day 4 in differentiation inducing medium,10884.5 Fluor. Units
same,"Fatty acid uptake, Fluor. Units",[4]; Day 6 in differentiation inducing medium,15441.8 Fluor. Units
same,"Fatty acid uptake, Fluor. Units",[4]; Day 10 in differentiation inducing medium,31645.8 Fluor. Units
same,"Fatty acid uptake, Fluor. Units",[4]; Day 12 in differentiation inducing medium,37910 Fluor. Units
"O=C(O)CCCCCCCCCCCCCCCOC(=O)c1c2ccccc2cc2ccccc12 [16-AP, 16-(9-anthroyloxy) palmitic acid]","Uptake by 3T3-L1 cells, Day 9",[4],8528 ± 20 Raw Fluorescent Units
same,"Uptake by 3T3-L1 cells, Day 0",[4],2944 ± 404 Raw Fluorescent Units
"O=C([O-])CCCCCCCCCCCc1ccc2n1[B-](F)(F)[N+]1=C(c3cccs3)C=CC1=C2.[H+] [BODIPY 558/568 C12, 4,4-difluoro-5-(2-thienyl) 1-4-bora-3a,4a-diaza-s-indacene-3-dodecanoic acid]","Uptake by 3T3-L1 cells, Day 9",[4],3622 ± 641 Raw Fluorescent Units
same,"Uptake by 3T3-L1 cells, Day 0",[4],116 ± 9 Raw Fluorescent Units
"C[C@@H]1C[C@H]2[C@@H]3CCC4=CC(=O)C=C[C@]4(C)[C@@]3(F)[C@@H](O)C[C@]2(C)[C@@]1(O)C(=O)CO [Dex, dexamethasone]",Uptake Ratio,[6]; [8],5
same,Uptake Ratio,[6]; [9],79
same,Uptake Ratio,[6]; [10],49
same,% Diff.,[7]; [8],30%
same,% Diff.,[7]; [9],70%
same,% Diff.,[7]; [10],60%
